{"source": "paper PMC12202533", "about": "“Mechanistic Insights and Anti-cancer Activity of 2H-benzo[b][1,4]oxazin-3(4H)-one Linked 1,2,3-Triazoles in Human Cancer Cells” (Frontiers in Pharmacology, 2025)", "key": {"A549 cells [1]": {"tested_on": "A549 cells", "assay": "Western blot analysis of autophagy, DNA damage and cell cycle proteins", "format": "cell-based, human", "settings": "A549, 5, 10, 20 μM, 48 h", "description": "Next, we measured the expression of key proteins involved in autophagy, DNA damage, and cell cycle progression in 14b and 14c compound-exposed cells. After treatment for 48 h, cell proteins were collected and measured by Western blot. […] Proteins in cell cycle progression, including cyclin D, cyclin E, and β-catenin, however, were not affected in the 14 b compound exposure group compared with the control group. […] However, the key regulators involved in autophagy and cell cycle progression, such as LC3, cyclin D, cyclin E, and β-catenin, were not changed.\nFIGURE 7 Compounds 14b and 14c affected DNA damage and autophagy. A549 cells were treated with different concentrations of 14b (A) and 14c (B) (5 μM, 10 μM, and 20 μM) for 48 h. Protein expressions were analyzed by Western blot. Top: Western blot of LC3, γ-H2AX, PARP, cyclin D, cyclin E, and β-catenin. Bottom: quantitative measurements relative to ACTIN. Data are presented as mean ± SEM, *P < 0.05.\nThe following antibodies were used for Western blot analysis: LC3, γ-H2AX, PARP, cyclin D, cyclin E, β-Catenin, and β-actin. Cells were treated with compounds (0, 5, 10, and 20 μM) for 48 h, and total cell proteins were extracted using RIPA buffer containing a protease/phosphatase inhibitor cocktail. Protein expression levels were measured and analyzed by Western blotting."}, "A549 cells [2]": {"tested_on": "A549 cells", "assay": "Cellular ROS level measurement (DCFH-DA)", "format": "cell-based, human", "settings": "A549, 5, 10 or 20 μM, 24 h", "source_text": "Intracellular reactive oxygen species (ROS) generation will result in mitochondrial membrane damage and further induce cell apoptosis and cell death. To determine whether compounds 14b and 14c could induce ROS generation, we treated A549 cells with different doses of these two compounds and measured the intracellular ROS levels using the DCFH-DA peroxide-sensitive fluorescent dye. When DCFH-DA entered the cells, it would hydrolyze into DCFH by esterase and then convert to non-diffusible green fluorescent DCF by oxidation.\nFIGURE 6 Compounds 14b and 14c increased ROS levels. A549 cells were treated with different concentrations of 14b (A) and 14c (B) (5 μM, 10 μM, or 20 μM) for 24 h. ROS levels were stained using DCFH-DA, observed by confocal microscopy, and analyzed by ImageJ. Data are presented as mean ± SEM, *P < 0.05.\nA549 cells were seeded at a density of 5 × 10^3 cells per well in a 96-well plate and allowed to adhere overnight. Compounds were then added at concentrations of 0, 5, 10, and 20 μM for 24 h. After treatment, the medium was removed, and fresh medium without FBS but containing 10 μM DCFH-DA was added and incubated in the dark for 30 min. The cells were washed three times with FBS-free medium to remove excess probe. ROS levels were then measured and imaged using confocal microscopy."}, "SKOV3": {"tested_on": "SKOV3", "assay": "CCK-8 cell viability assay", "format": "cell-based", "settings": "Homo sapiens, SK-OV-3, SKOV3, 40 μM, 48 h, read-out: Cell viability (100%), 40 μM, 48 h, SKOV3", "description": "(§1) In order to investigate the anticancer activity of new synthetic 1,4-benzoxazinone-linked 1,2,3-triazole compounds, we chose several cancer cell lines, including A549 (lung), Huh7 (liver), MCF-7 (breast), HCT-116 (colon), and SKOV3 (ovary), and measured cell viability using the CCK-8 assay. Cells were exposed to 40 μM of the compounds for 48 h, and then cell viability was determined. […] In addition, we used the reference drug gefitinib as a positive control and measured its cell viability on different cell lines. […] We used BEAS-2B cells as a normal cell line to determine the toxic effects of these compounds on normal cells. […] Furthermore, we evaluated the IC50 of these compounds in A549.\n(§2) Human cancer cell lines A549, Huh7, MCF-7, HCT-116, and SKOV3 were obtained from ATCC. The cells were cultured in DMEM or RPMI 1640 medium supplemented with 10% FBS and 1% penicillin/streptomycin and incubated at 37°C in a CO2-humidified atmosphere.\n(§3) Cells were cultured in DMEM or RPMI 1640 medium containing 10% FBS and 1% penicillin/streptomycin at 37°C and 5% CO2. The CCK-8 assay was performed on several human cancer cell lines, including A549, Huh7, MCF-7, HCT-116, and SKOV3, according to the manufacturer’s instructions. Cells were plated at a density of 5 × 10^3 cells per well in a 96-well plate. After 24 h of incubation, cells were treated with 40 μM compounds for 48 h. Cell viability was assessed by adding 10 μL of CCK-8 reagent, dissolved in the cell culture medium, and incubating for 1 h. Absorbance was measured at 450 nm using a microplate reader. IC50 values were determined using a dose-response curve with six concentrations (0, 10, 20, 40, 80, and 160 μM), and IC50 values were calculated using GraphPad Prism software."}, "HCT-116": {"tested_on": "HCT-116", "assay": "CCK-8 cell viability assay", "format": "cell-based", "settings": "Homo sapiens, HCT-116, 40 μM, 48 h, read-out: Cell viability (100%), 40 μM, 48 h, HCT-116", "description": "as §1, §2, §3"}, "Huh7": {"tested_on": "Huh7", "assay": "CCK-8 cell viability assay", "format": "cell-based", "settings": "Homo sapiens, Huh-7, Huh7, 40 μM, 48 h, read-out: Cell viability (100%), 40 μM, 48 h, Huh7", "description": "as §1, §2, §3"}, "MCF-7": {"tested_on": "MCF-7", "assay": "CCK-8 cell viability assay", "format": "cell-based", "settings": "Homo sapiens, MCF7, MCF-7, 40 μM, 48 h, read-out: Cell viability (100%), 40 μM, 48 h, MCF-7", "description": "as §1, §2, §3"}, "A549 cells [3]": {"tested_on": "A549 cells", "assay": "DNA damage staining (γ-H2AX antibody and DAPI)", "format": "cell-based, human", "settings": "A549, 5, 10, and 20 μM, 24 h", "description": "In order to further verify the effects of 2H-1,4-benzoxazin-3(4H)-one linked 1,2,3-triazole derivatives on DNA damage, A549 cells were treated with different doses (5, 10, and 20 μM) of compounds 14b and 14c. After 24-h treatment, cells were stained with γ-H2AX antibody and DAPI, cell nuclei were stained blue, and DNA-damaged cells were stained green. Using confocal microscopy, cells were observed and photographed.\nA549 cells were seeded at a density of 2 × 10^3 cells per well in 96-well plates. Cells were treated with different concentrations (0, 5, 10, 20, and 30 μM) of the compounds for 24 h. DNA damage was assessed using a DNA damage detection kit. The cell nuclei were stained blue, while DNA-damaged cells were stained green. Cells were then observed and photographed using a fluorescence microscope."}}, "data": [{"smiles": "O=C1COc2ccc(NC(=O)c3cccc(-c4cn(-c5cccc(Br)c5)nn4)c3)cc2N1", "note": "[Compound 14b]", "values": [{"measurement": "PARP expression", "setting": "A549 cells [1]", "result": "not changed"}, {"measurement": "cell cycle progression proteins cyclin D, cyclin E, and β-catenin", "setting": "A549 cells [1]", "result": "not affected"}, {"measurement": "ratio of LC3II to LC3I / LC3 (autophagy)", "setting": "A549 cells [1]", "result": "increased"}, {"measurement": "γ-H2AX protein expression", "setting": "A549 cells [1]", "result": "induced"}, {"measurement": "ROS generation", "setting": "A549 cells [2]", "result": "increased ROS generation"}, {"measurement": "viability at 40 µM", "setting": "SKOV3", "result": "98.02 ± 0.87", "unit": "%"}, {"measurement": "viability at 40 µM", "setting": "HCT-116", "result": "125 ± 2.78", "unit": "%"}, {"measurement": "viability at 40 µM", "setting": "Huh7", "result": "123 ± 2.08", "unit": "%"}, {"measurement": "viability at 40 µM", "setting": "MCF-7", "result": "114 ± 1.68", "unit": "%"}, {"measurement": "DNA damage (γ-H2AX staining)", "setting": "A549 cells [3]", "result": "significantly led to DNA damage in a concentration-dependent manner"}]}, {"smiles": "O=C1COc2ccc(NC(=O)c3cccc(-c4cn(-c5ccccc5F)nn4)c3)cc2N1", "note": "[Compound 14c]", "values": [{"measurement": "cell cycle progression proteins cyclin D, cyclin E, and β-catenin", "setting": "A549 cells [1]", "result": "not changed"}, {"measurement": "ratio of LC3II to LC3I / LC3 (autophagy)", "setting": "A549 cells [1]", "result": "not changed"}, {"measurement": "γ-H2AX protein expression", "setting": "A549 cells [1]", "result": "increased expression"}, {"measurement": "ROS generation", "setting": "A549 cells [2]", "result": "increased ROS generation"}, {"measurement": "viability at 40 µM", "setting": "SKOV3", "result": "57.2 ± 4.16", "unit": "%"}, {"measurement": "viability at 40 µM", "setting": "HCT-116", "result": "65.3 ± 4.55", "unit": "%"}, {"measurement": "viability at 40 µM", "setting": "Huh7", "result": "125 ± 1.53", "unit": "%"}, {"measurement": "viability at 40 µM", "setting": "MCF-7", "result": "110 ± 2.45", "unit": "%"}, {"measurement": "DNA damage (γ-H2AX staining)", "setting": "A549 cells [3]", "result": "significantly led to DNA damage in a concentration-dependent manner"}]}]}
